Assays:
[1] = system: IFV (H1N1, A/Puerto Rico/8/34); experiment: rRT-PCR quantification of IFV captured on membranes; type: binding, influenza virus A/Puerto Rico/8/34 (H1N1); conditions: 1600 pfu incubated 1 h at 25°C; plastic plates; estimated from rRT-PCR standard curve (M gene, R^2 0.954)
Experimental: The pep-PE/DOPC (50:50) lipid monolayer was attached horizontally to plastic plates as described above. […] After washing with PBS, plates were incubated with AVL viral lysis buffer (QIAamp Viral RNA Mini Kit, QIAGEN) for 10 min. Viral RNA was extracted according to the manufacturer's instructions.
One-step RT-PCR was performed using QuantiTect SYBR Green PCR Kit (QIAGEN) with forward and reverse primers for the sequences of the matrix protein (M) gene for 244 bp (forward M30F2/08: 5′-[…] -3′; reverse M264R3/08: 5′-[…] -3′; Eisfeld et al., [2014]). The reaction was performed using a PikoReal Real-Time PCR system (TCR0096, Thermo Scientific). PCR was set up in a 10-μL reaction volume containing 5 μL of 2 × QuantiTect SYBR Green RT-PCR master mix, 0.1 μL of QuantiTect RT Mix, 0.5 μL of RNA template, 1 μL of forward and reverse primers (10 μM each), and 3.4 μL of RNase free water. […] Fluorescence was measured at the end of each cycle. […] A melting curve analysis consisted of 60°C for 30 s, and followed by a temperature increase to 95°C for 10 s with the continuous reading of fluorescence. The amplified products were analyzed by agarose gel electrophoresis (2.5% agarose) and detected by staining with ethidium bromide (Supplementary Figure 3A). […]

HA = conditions: cited from earlier work
IFV = conditions: ref Matsubara et al., [2010]; cited from earlier work
From the text: The first step in the infection of cells by IFV is the binding of HA to sialic acid-containing glycoconjugates (Skehel and Wiley, [2000]). Human HA strains preferentially bind to the terminal sialylgalactose structure (Neu5Acα2−6Gal), whereas avian and equine strains bind to the corresponding Neu5Acα2−3Gal (Suzuki, [2005]).

Molecule: CCCCCCCC/C=C\CCCCCCCC(=O)OC[C@H](COP(=O)([O-])OCC[N+](C)(C)C)OC(=O)CCCCCCC/C=C\CCCCCCCC [DOPC, Dioleoylphosphatidylcholine]
- amount of virus captured on the membrane [1]: 100 pfu

Molecule: Ala-Arg-Leu-Pro-Arg
- binding to receptor-binding site of HA (HA; ref Matsubara et al., [2010]): binds to the receptor-binding site of HA by mimicking sialic acid
- inhibition of IFV infection in cells (IFV): exerts the inhibitory effects on IFV infection in cells

Molecule: Neu5Acα2–3Galβ1–4Glcβ1–1′Cer [GM3]
- HA binding to GM3 (HA; ref Suzuki et al., [1986], Sato et al., [1996]): HA binds to GM3 through the sialyllactose structure

— paper PMC4823272 (Frontiers in Microbiology, 2016)
